From ChEMBL document CHEMBL3045706, “Synthesis of licochalcones and inhibition effects on radical-induced oxidation of DNA” (Med Chem Res, 2013) come the findings set out here.

Holding throughout (type): functional
A short description of assay [1]: Inhibition of AAPH-induced DNA oxidation by TBARS assay.
Assay [2] is described as follows: Inhibition of Cu2+/GSH-induced DNA oxidation at 0.2 mM by TBARS assay.
Assay [3] in a line: Antioxidant activity assessed as hydroxyl radical-induced DNA oxidation at 0.2 mM after 30 min by TBARS assay (reference value: 100%).

The source made the active and inactive calls. No cut-off for these calls is given here.

In the case of `C=C(C)C(C)c1cc(/C=C/C(=O)c2ccc(O)cc2)cc(OC)c1O` (centres undefined), the inhibition result in assay [1] and in assay [2] was “Active” in each case. Moreover, the Activity in assay [3] amounted to 91.3%.

For the molecule `C=C(C)C(C)c1cc(/C=C/C(=O)c2c(O)cc(O)cc2O)cc(OC)c1O` (centres undefined), the inhibition entry in assay [1] and in assay [2] was “Active” throughout. Moreover, the Activity in assay [3] was 98.2%.

Consider `C=C(C)C(C)c1cc(/C=C/C(=O)c2ccc(O)cc2O)cc(OC)c1O` (centres undefined), for which the inhibition entry in assay [1] and in assay [2] was “Active” each time. Moreover, the Activity in assay [3] is 106%.
